# According to patent US20240368159A1, “HPK1 DEGRADERS, COMPOSITIONS COMPRISING THE HPK1 DEGRADER, AND METHODS OF USING THE SAME” (BIOFRONT LTD, priority 2021, published 2024):
# Columns and labels:
# [1] = target: T1, HPK1 protein (Homo sapiens, UniProt Q92918); assay: HPK1 enzyme inhibition assay (ADP-Glo); type: biochemical; conditions: MBP substrate, ATP, ADP-Glo readout
# T1 construct: purchased Signal Chem M23-11G-10
# T1 sequence (Q92918 1-346 limits assumed): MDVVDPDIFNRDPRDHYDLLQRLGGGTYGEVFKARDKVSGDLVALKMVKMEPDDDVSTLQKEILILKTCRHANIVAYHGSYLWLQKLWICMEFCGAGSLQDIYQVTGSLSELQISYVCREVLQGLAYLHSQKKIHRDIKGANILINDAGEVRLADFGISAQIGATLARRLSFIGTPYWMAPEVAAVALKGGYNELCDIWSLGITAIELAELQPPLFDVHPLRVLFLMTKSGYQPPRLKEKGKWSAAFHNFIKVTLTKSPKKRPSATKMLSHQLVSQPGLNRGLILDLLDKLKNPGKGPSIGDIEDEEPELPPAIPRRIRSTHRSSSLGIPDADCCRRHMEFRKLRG
# In short: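 Recombinant human HPK1 preincubated with compound 60 min at 25 °C, then reaction with MBP (0.2 ug/ul, 2× stock) and ATP (20 μM, 2× stock) 60 min at 25 °C. ADP formed detected by ADP-Glo after ATP depletion and conversion to ATP; IC50 calculated from signal.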
# [2] = target: T2, HPK1 protein (Mus musculus, UniProt P70218); assay: HPK1 protein degradation in mouse pan T cell (western blot); type: cell-based; conditions: 18 h incubation
# T2 construct: the CD3+ T cell population was isolated from spleenocytes of mice; endogenous in cells; host or cells: primary mouse splenic CD3+ (pan) T cells
# T2 sequence (P70218 1-827): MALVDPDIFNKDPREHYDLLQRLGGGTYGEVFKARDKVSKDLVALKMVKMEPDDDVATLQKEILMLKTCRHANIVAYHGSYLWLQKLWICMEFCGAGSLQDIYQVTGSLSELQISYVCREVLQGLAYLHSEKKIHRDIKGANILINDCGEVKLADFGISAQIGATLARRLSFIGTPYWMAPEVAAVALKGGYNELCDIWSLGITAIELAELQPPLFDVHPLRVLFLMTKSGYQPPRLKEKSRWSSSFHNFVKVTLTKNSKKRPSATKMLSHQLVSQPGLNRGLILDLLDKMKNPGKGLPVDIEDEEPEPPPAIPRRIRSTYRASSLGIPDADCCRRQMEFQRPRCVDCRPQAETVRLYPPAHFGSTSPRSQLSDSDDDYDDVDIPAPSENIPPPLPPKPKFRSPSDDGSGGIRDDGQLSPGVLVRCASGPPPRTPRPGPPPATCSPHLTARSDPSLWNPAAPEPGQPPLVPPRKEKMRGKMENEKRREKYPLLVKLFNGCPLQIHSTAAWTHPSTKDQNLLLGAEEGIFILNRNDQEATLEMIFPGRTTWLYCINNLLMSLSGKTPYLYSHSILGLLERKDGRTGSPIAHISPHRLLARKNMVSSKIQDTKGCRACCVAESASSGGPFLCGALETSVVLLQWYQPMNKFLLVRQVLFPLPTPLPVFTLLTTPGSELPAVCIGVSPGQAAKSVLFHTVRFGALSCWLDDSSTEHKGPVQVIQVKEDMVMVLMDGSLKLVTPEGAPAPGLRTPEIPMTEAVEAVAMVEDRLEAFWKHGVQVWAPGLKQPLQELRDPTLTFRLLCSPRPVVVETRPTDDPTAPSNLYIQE
# Protocol: (§1) HPK1 protein degradation in mouse pan T cell: the CD3+ T cell population was isolated from spleenocytes of mice by using Pan T cell isolation kit from Miltenyi Biotec (130-095-130) following manufacture's instruction. The isolated T cells were then incubated with a variety of concentrations of compound. After incubation for 18 h, the cells were collected and lysed. The protein concentration was determined by BCA protein assay kit from Thermo (23227). The HPK1 protein level was determined by western blots, using anti-human HPK1 polyclonal antibody from CST (4472). Proteins were loaded into each well of the pre-casting gels and subjected to electrophoretic separation by SDS-PAGE. The protein resolved by SDS-PAGE were transferred to PVDF, blocked by 5% skim milk and probed with anti-human HPK1 antibody or β-actin antibody from CST (3700S), using following standard western blotting procedure.
# [3] = target: T3, HPK1 protein (Homo sapiens, UniProt Q92918); assay: HPK1 protein degradation in human PBMC (western blot); type: cell-based; conditions: 18 h incubation
# T3 construct: Frozen human PBMC were purchased from Shanghai OribioTech; host or cells: human PBMC
# Protocol: as §1, with “human PBMC: Frozen human PBMC were purchased” for “mouse pan T cell: the CD3+ T cell population was isolated”, “Shanghai OribioTech and recovered with culture medium (RMPI1640) prior to use.” for “spleenocytes of mice by using Pan T cell isolation kit from Miltenyi Biotec (130-095-130) following manufacture's instruction.”, “The” for “The isolated T”, “(4472S).” for “(4472).”, “milk,” for “milk”, “using” for “using following”
# T3 sequence (Q92918 whole entry): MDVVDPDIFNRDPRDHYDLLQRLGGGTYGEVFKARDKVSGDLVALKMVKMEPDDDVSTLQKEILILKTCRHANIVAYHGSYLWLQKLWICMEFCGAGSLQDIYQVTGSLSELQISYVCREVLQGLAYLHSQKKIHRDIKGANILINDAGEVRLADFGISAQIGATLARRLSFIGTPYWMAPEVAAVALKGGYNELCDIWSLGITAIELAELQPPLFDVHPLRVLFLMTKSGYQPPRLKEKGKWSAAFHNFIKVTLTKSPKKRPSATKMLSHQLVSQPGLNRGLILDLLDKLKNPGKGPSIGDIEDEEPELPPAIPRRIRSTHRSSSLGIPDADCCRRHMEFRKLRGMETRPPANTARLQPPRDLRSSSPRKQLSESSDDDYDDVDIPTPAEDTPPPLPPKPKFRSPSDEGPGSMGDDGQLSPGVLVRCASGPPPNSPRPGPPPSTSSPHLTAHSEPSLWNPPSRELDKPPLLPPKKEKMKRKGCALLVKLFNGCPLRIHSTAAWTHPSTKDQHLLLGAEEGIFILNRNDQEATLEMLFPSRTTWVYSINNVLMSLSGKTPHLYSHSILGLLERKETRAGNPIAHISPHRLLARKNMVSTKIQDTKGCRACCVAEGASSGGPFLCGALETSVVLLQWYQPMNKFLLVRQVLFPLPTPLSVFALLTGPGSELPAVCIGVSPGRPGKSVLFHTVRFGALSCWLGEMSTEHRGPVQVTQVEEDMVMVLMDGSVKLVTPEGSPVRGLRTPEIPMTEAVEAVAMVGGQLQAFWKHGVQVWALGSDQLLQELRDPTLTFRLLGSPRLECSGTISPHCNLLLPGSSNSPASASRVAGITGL
# [4] = system: HPK1 p-SLP-76; assay: HPK1 p-SLP-76 inhibition assay in human PBMC (HTRF); type: cell-based; conditions: 6 h compound, anti-CD3 stimulation 20 min
# Protocol: Human PBMC were purchased from OriCells (FPB004F-C). Before compound treatment, PBMC were starved in PRMI-1640 medium supplemented with 0.5% FBS overnight. The cell density was adjusted to 1*10^7 cells/mL in assay medium (RPMI-1640 no phenol red with 0.5% FBS) and 16 μL cell suspension was transferred per well to a 384-well plate (Corning #3765). 6× solution of test compound was prepared in assay medium and 4 μL was added per well to the 384-well plate. The plate was then incubated at 37° C., 5% CO2 for 6 h. PBMC in 384-well plate were stimulated with anti-CD3 (BD Biosciences #555329, final conc. is 10 ug/mL) for 20 min at 37° C., 5% CO2 by adding 4 μL 6× antibody solution per well. Phospho-SLP76 HTRF kit was purchased from Cisbio (63ADK076PEH). 8 μL 4× Lysis Buffer was added to 384-well plate after anti-CD3 stimulation. The plate was centrifuged at 1,000 rpm for 1 min, shaken at 250 rpm for 60 min and centrifuged again at 1,000 rpm for 5 min. Afterwards the cell lysates were transferred to the assay plate (Greiner #784075) with 16 μL per well. 4 μL detection antibody mix per well prepared in Detection Buffer was added to the assay plate, followed by centrifugation at 1,000 rpm for 1 min and incubation at 25° C. overnight.
SMILES,IC50 [1] [nM],Dmax [2] [%],Dmax [3] [%],IC50 [4] [nM]
O=C1CCC(N2C(=O)c3cc(F)c(N4CCN(CCCN5CCN(c6cccc(-c7cnc8[nH]cc(CC(F)F)c8c7Cl)c6)C(=O)C5)CC4)cc3C2=O)C(=O)N1 (stereo not drawn) [Example 41],10 to 100,95,90,–
CCc1c[nH]c2ncc(-c3cccc(N4CCN(CCOC5CCN(c6cc7c(cc6F)C(=O)N(C6CCC(=O)NC6=O)C7=O)CC5)CC4=O)c3)c(Cl)c12 (stereo not drawn) [Example 26],10 to 100,91,86,–
"O=C1CCC(N2Cc3cc(C4=CC5CCC(C4)N5CCCN4CCN(c5cccc(-c6cnc7[nH]cc(C8CC8)c7c6Cl)c5)C(=O)C4)ccc3C2=O)C(=O)N1 (stereo not drawn) [Example 64, 3-(5-(8-(3-(4-(3-(4-chloro-3-cyclopropyl-1H-pyrrolo[2,3-b]pyridin-5-yl)phenyl)-3-oxopiperazin-1-yl)propyl)-8-azabicyclo[3.2.1]oct-2-en-3-yl)-1-oxoisoindolin-2-yl)piperidine-2,6-dione]",≤ 10,–,70,–
CN(CC(=O)N1CCN(c2cccc(-c3cnc4[nH]cc(C5CC5)c4c3Cl)c2)C(=O)C1)C1CCN(c2cc3c(cc2F)C(=O)N(C2CCC(=O)NC2=O)C3=O)CC1 (stereo not drawn) [Example 42],10 to 100,95,40,–
CCc1c[nH]c2ncc(-c3cc(N4CCN(C(=O)CN(C)C5CCN(c6cc7c(cc6F)C(=O)N(C6CCC(=O)NC6=O)C7=O)CC5)CC4=O)ccc3F)c(Cl)c12 (stereo not drawn) [Example 44],10 to 100,50,30,–
"CCc1c[nH]c2ncc(-c3cccc(N4CCN(C(=O)CCN5CCN(c6ccc7c(c6)C(=O)N(C6CCC(=O)NC6=O)C7=O)CC5)CC4=O)c3)c(Cl)c12 (stereo not drawn) [Example 21, 5-(4-(3-(4-(3-(4-chloro-3-ethyl-1H-pyrrolo[2,3-b]pyridin-5-yl)phenyl)-3-oxopiperazin-1-yl)-3-oxopropyl)piperazin-1-yl)-2-(2,6-dioxopiperidin-3-yl)isoindoline-1,3-dione]",10 to 100,–,60,–
"CCc1c[nH]c2ncc(-c3cccc(N4CCN(CC5CCN(c6cc7c(cc6F)C(=O)N(C6CCC(=O)NC6=O)C7=O)CC5)CC4=O)c3)c(Cl)c12 (stereo not drawn) [Example 38, 5-(4-((4-(3-(4-chloro-3-ethyl-1H-pyrrolo[2,3-b]pyridin-5-yl)phenyl)-3-oxopiperazin-1-yl)methyl)piperidin-1-yl)-2-(2,6-dioxopiperidin-3-yl)-6-fluoro isoindoline-1,3-dione]",10 to 100,90,30,–
O=C1CCC(N2Cc3ccc(N4CCC(OCC(=O)N5CCN(c6cccc(-c7cnc8[nH]cc(C9CC9)c8c7Cl)c6)C(=O)C5)CC4)cc3C2=O)C(=O)N1 (stereo not drawn) [Example 46],≤ 10,90,51,–
"CCc1c[nH]c2ncc(-c3cccc(N4CCN(C(=O)CCN5CCN(C(=O)c6ccc(C)c(N7CCC(=O)NC7=O)c6)CC5)CC4=O)c3)c(Cl)c12 [Example 50, 1-(5-(4-(3-(4-(3-(4-chloro-3-ethyl-1H-pyrrolo[2,3-b]pyridin-5-yl)phenyl)-3-oxopiperazin-1-yl)-3-oxopropyl)piperazine-1-carbonyl)-2-methylphenyl)dihydro pyrimidine-2,4 (1H,3H)-dione]",≤ 10,80,–,> 10000

# Second part, led by results:
IC50 [1] [nM],Dmax [2] [%],Dmax [3] [%],SMILES,IC50 [4] [nM]
10 to 100,95,74,"CCc1c[nH]c2ncc(-c3cccc(N4CCN(CCCN5CCN(c6ccc7c(N8CCC(=O)NC8=O)cccc7c6)CC5)CC4=O)c3)c(Cl)c12 [Example 76, 1-(6-(4-(3-(4-(3-(4-chloro-3-ethyl-1H-pyrrolo[2,3-b]pyridin-5-yl)phenyl)-3-oxopiperazin-1-yl)propyl)piperazin-1-yl)naphthalen-1-yl)dihydropyrimidine-2,4 (1H,3H)-dione]",–
10 to 100,95,96,"O=C1CCC(N2C(=O)c3cc(F)c(N4CCN(C5CC(CN6CCN(c7cccc(-c8cnc9[nH]cc(C%10CC%10)c9c8Cl)c7)C(=O)C6)C5)CC4)cc3C2=O)C(=O)N1 (stereo not drawn) [Example 51, 5-(4-(3-((4-(3-(4-chloro-3-cyclopropyl-1H-pyrrolo[2,3-b]pyridin-5-yl)phenyl)-3-oxopiperazin-1-yl)methyl)cyclobutyl)piperazin-1-yl)-2-(2,6-dioxopiperidin-3-yl)-6-fluoroisoindoline-1,3-dione]",–
10 to 100,95,31,O=C1CCC(N2C(=O)c3cc(F)c(N4CCC5(CC4)CN(CCN4CCN(c6cccc(-c7cnc8[nH]cc(C9CC9)c8c7Cl)c6)C(=O)C4)C5)cc3C2=O)C(=O)N1 (stereo not drawn) [Example 52],–
100 to 1000,–,< 50,"CC(COC1CCN(c2cc3c(cc2F)C(=O)N(C2CCC(=O)NC2=O)C3=O)CC1)N1CCN(c2cccc(-c3cnc4[nH]cc(C5CC5)c4c3Cl)c2)C(=O)C1 (stereo not drawn) [Example 49, 5-(4-(2-(4-(3-(4-chloro-3-cyclopropyl-1H-pyrrolo[2,3-b]pyridin-5-yl)phenyl)-3-oxopiperazin-1-yl)propoxy)piperidin-1-yl)-2-(2,6-dioxopiperidin-3-yl)-6-fluoroisoindoline-1,3-dione]",–
≤ 10,95,85,O=C1CCC(N2Cc3cc(N4CCC(OCC(=O)N5CCN(c6cccc(-c7cnc8[nH]cc(C9CC9)c8c7Cl)c6)C(=O)C5)CC4)ccc3C2=O)C(=O)N1 (stereo not drawn) [Example 47],–
≤ 10,95,–,"Cn1nc(N2CCC(=O)NC2=O)c2ccc(C3CCN(CCCN4CCN(c5cccc(-c6cnc7[nH]cc(C8CC8)c7c6Cl)c5)C(=O)C4)CC3)cc21 [Example 77, 1-(6-(1-(3-(4-(3-(4-chloro-3-cyclopropyl-1H-pyrrolo[2,3-b]pyridin-5-yl)phenyl)-3-oxopiperazin-1-yl)propyl)piperidin-4-yl)-1-methyl-1H-indazol-3-yl)dihydro pyrimidine-2,4 (1H,3H)-dione]",≤ 300
